22 molecules from US10709709B2, “Substituted carbonucleoside derivatives useful as anticancer agents” (Pfizer Inc., priority 2016, dated 2020) can be followed below.

The subject of assay [1] is A549 lung adenocarcinoma cells. Nature of the assay: A549 proliferation assay (Cell Titer Glo). In kind it is cell-based. To be noted: Homo sapiens, A549, 168 h, 7 days with compound, cell viability by Cell Titer Glo (ATP). As for the experimental part:
A549 lung adenocarcinoma cells (American Type Culture Collection) were maintained in DMEM growth media (Life Technologies) supplemented with 10% v/v heat inactivated fetal bovine serum (Sigma) and cultured at 37° C., 5% CO2. Exponentially growing A549 cells were plated in 96-well black tissue culture treated plates (Corning) at a density of […] in a volume of 100 μl culture media and allowed to adhere overnight at 37° C., 5% CO2. The following day, compound plates were prepared by making nine-point 3.3-fold dilutions in DMSO with a top concentration of 10 mM. Compounds were further diluted in culture media and 11 μl was added to the cells (final top assay concentration was 10 μM and DMSO was 0.2%). Cells were incubated with compound at 37° C., 5% CO2 for 7 days with media and compound replacement on day 4. Cell viability was assayed on Day 7 by adding 100 μl Cell Titer Glo (Promega) reagent to the plate to measure the amount of ATP present in the cells. Luminescence was read using the Envision 2104 Multilabel Reader (Perkin Elmer). The 50% inhibitory concentration (IC50) was determined using a 4-parameter fit model normalized to the DMSO control in dose response.

Assay [2] has as its target PRMT5/MEP50 protein complex (Homo sapiens (Human), UniProt O14744). As to the kind of experiment: PRMT5 biochemical assay (3H-SAM methylation of H4(1-21) peptide, filter plate scintillation). To be noted: 10 nM PRMT5/MEP50 complex, 200 nM H4(1-21) peptide, 1 uM SAM, 25 minute incubation at room temperature. Summed up:
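Human PRMT5/MEP50 complex (10 nM) methylating H4(1-21) peptide (200 nM) with 3H/unlabelled SAM (1 uM final) in pH 8.5 Tris buffer, 25 min at room temperature. Stopped with TCA, 3H-peptide captured on filter plates and scintillation-counted. IC50 from 4-parameter fit.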

The structures appear in SMILES notation.

PRMT5/MEP50 protein complex, sequence (O14744 other isoform, or with tags, fused parts or gaps): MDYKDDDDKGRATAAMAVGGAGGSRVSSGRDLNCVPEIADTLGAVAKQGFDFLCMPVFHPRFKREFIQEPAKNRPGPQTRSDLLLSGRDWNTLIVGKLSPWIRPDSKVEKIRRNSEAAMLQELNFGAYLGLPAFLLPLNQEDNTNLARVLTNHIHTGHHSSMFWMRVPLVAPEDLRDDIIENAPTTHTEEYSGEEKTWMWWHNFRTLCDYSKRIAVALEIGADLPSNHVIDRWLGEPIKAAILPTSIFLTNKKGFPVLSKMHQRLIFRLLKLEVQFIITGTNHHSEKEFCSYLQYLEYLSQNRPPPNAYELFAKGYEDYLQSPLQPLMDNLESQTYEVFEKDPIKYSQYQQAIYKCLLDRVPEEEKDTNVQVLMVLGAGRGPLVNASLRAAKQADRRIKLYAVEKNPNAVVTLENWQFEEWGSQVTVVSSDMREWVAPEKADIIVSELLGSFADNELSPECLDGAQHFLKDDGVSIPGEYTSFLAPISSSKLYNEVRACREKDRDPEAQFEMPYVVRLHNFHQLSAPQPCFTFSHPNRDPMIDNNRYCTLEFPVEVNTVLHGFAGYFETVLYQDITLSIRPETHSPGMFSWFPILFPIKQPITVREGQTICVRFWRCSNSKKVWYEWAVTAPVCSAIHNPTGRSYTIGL
PRMT5/MEP50 protein complex, sequence (Q9BQA1 whole entry partner): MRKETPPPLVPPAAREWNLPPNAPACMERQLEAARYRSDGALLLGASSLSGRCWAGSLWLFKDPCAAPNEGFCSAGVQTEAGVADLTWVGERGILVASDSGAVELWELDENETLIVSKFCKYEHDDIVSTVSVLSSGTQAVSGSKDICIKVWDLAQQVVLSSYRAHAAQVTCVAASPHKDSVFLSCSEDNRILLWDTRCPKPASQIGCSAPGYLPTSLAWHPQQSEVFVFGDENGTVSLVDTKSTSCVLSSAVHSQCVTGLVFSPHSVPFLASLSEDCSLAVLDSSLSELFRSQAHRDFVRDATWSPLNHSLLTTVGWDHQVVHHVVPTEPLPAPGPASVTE

As a reminder, the IC50 is the concentration that inhibits the measured activity by half. As to `Cc1ncnc2c1ccn2[C@@H]1C[C@H](Oc2ccc(I)c3c2CNCC3)[C@@H](O)[C@H]1O` [Example 98, (1S,2S,3S,5R)-3-((5-iodo-1,2,3,4-tetrahydroisoquinolin-8-yl)oxy)-5-(4-methyl-7H-pyrrolo[2,3-d]pyrimidin-7-yl)cyclopentane-1,2-diol], the values for the IC50 in assay [1] and in assay [2] were 1490 nM and 11 nM, respectively.
On the same counts, the results for `Nc1ncnc2c1c(F)cn2[C@@H]1C[C@H](Oc2cccc3c2CNCC3)[C@@H](O)[C@H]1O` [Example 99, (1S,2S,3R,5S)-3-(4-amino-5-fluoro-7H-pyrrolo[2,3-d]pyrimidin-7-yl)-5-((1,2,3,4-tetrahydroisoquinolin-8-yl)oxy)cyclopentane-1,2-diol] are 728 nM and 2 nM.
For `Nc1ncnc2c1c(F)cn2[C@@H]1C[C@H](Oc2ccc(F)c3c2CNCC3)[C@@H](O)[C@H]1O` [Example 100, (1S,2S,3R,5S)-3-(4-amino-5-fluoro-7H-pyrrolo[2,3-d]pyrimidin-7-yl)-5-((5-fluoro-1,2,3,4-tetrahydroisoquinolin-8-yl)oxy)cyclopentane-1,2-diol], in that order: 185 nM and 1 nM.
As to `Nc1ncnc2c1c(F)cn2[C@@H]1C[C@H](Oc2cc(Br)cc3c2CNCC3)[C@@H](O)[C@H]1O` [Example 101, (1S,2S,3R,5S)-3-(4-amino-5-fluoro-7H-pyrrolo[2,3-d]pyrimidin-7-yl)-5-((6-bromo-1,2,3,4-tetrahydroisoquinolin-8-yl)oxy)cyclopentane-1,2-diol], the IC50 came out at 112 nM in assay [1] and 1 nM in assay [2].
For `Nc1ncnc2c1c(F)cn2[C@@H]1C[C@H](Oc2cc(Cl)cc3c2CNCC3)[C@@H](O)[C@H]1O` [Example 102, (1S,2S,3R,5S)-3-(4-amino-5-fluoro-7H-pyrrolo[2,3-d]pyrimidin-7-yl)-5-((6-chloro-1,2,3,4-tetrahydroisoquinolin-8-yl)oxy)cyclopentane-1,2-diol], in that order: 192 nM and 1 nM.
On the same counts, the results for `Nc1ncnc2c1c(F)cn2[C@@H]1C[C@H](Oc2cc(F)c(F)c3c2CNCC3)[C@@H](O)[C@H]1O` [Example 103, (1S,2S,3R,5S)-3-(4-amino-5-fluoro-7H-pyrrolo[2,3-d]pyrimidin-7-yl)-5-((5,6-difluoro-1,2,3,4-tetrahydroisoquinolin-8-yl)oxy)cyclopentane-1,2-diol] are 201 nM and 1 nM.
On the same counts, the results for `Nc1ncnc2c1c(F)cn2[C@@H]1C[C@H](Oc2cc(C(F)(F)F)cc3c2CNCC3)[C@@H](O)[C@H]1O` [Example 104, (1S,2S,3R,5S)-3-(4-amino-5-fluoro-7H-pyrrolo[2,3-d]pyrimidin-7-yl)-5-((6-(trifluoromethyl)-1,2,3,4-tetrahydroisoquinolin-8-yl)oxy)cyclopentane-1,2-diol] are 460 nM and 1 nM.
`Cc1cc2c(c(O[C@H]3C[C@@H](n4cc(F)c5c(N)ncnc54)[C@H](O)[C@@H]3O)c1)CNCC2` [Example 105, (1S,2S,3R,5S)-3-(4-amino-5-fluoro-7H-pyrrolo[2,3-d]pyrimidin-7-yl)-5-((6-methyl-1,2,3,4-tetrahydroisoquinolin-8-yl)oxy)cyclopentane-1,2-diol]: the IC50 worked out at 383 nM in assay [1] and 1 nM in assay [2].
For `CCc1cc2c(c(O[C@H]3C[C@@H](n4cc(F)c5c(N)ncnc54)[C@H](O)[C@@H]3O)c1)CNCC2` [Example 106, (1S,2S,3R,5S)-3-(4-amino-5-fluoro-7H-pyrrolo[2,3-d]pyrimidin-7-yl)-5-((6-ethyl-1,2,3,4-tetrahydroisoquinolin-8-yl)oxy)cyclopentane-1,2-diol], in that order: 3850 nM and 2 nM.
`Nc1ncnc2c1c(F)cn2[C@@H]1C[C@H](Oc2cc(F)cc3c2CNCC3)[C@@H](O)[C@H]1O` [Example 107, (1S,2S,3R,5S)-3-(4-amino-5-fluoro-7H-pyrrolo[2,3-d]pyrimidin-7-yl)-5-((6-fluoro-1,2,3,4-tetrahydroisoquinolin-8-yl)oxy)cyclopentane-1,2-diol]: the values for the IC50 in assay [1] and in assay [2] were 991 nM and 1 nM, respectively.
For `Nc1ncnc2c1c(F)cn2[C@@H]1C[C@H](Oc2cc(Cl)c(F)c3c2CNCC3)[C@@H](O)[C@H]1O` [Example 108, (1S,2S,3R,5S)-3-(4-amino-5-fluoro-7H-pyrrolo[2,3-d]pyrimidin-7-yl)-5-((6-chloro-5-fluoro-1,2,3,4-tetrahydroisoquinolin-8-yl)oxy)cyclopentane-1,2-diol], in that order: 163 nM and 1 nM.
For `Nc1ncnc2c1c(F)cn2[C@@H]1C[C@H](Oc2cc(Br)c(F)c3c2CNCC3)[C@@H](O)[C@H]1O` [Example 109, (1S,2S,3R,5S)-3-(4-amino-5-fluoro-7H-pyrrolo[2,3-d]pyrimidin-7-yl)-5-((6-bromo-5-fluoro-1,2,3,4-tetrahydroisoquinolin-8-yl)oxy)cyclopentane-1,2-diol], in that order: 67 nM and 1 nM.
In the case of `CN1CCc2cccc(O[C@H]3C[C@@H](n4cc(F)c5c(N)ncnc54)[C@H](O)[C@@H]3O)c2C1` [Example 114, (1S,2S,3R,5S)-3-(4-amino-5-fluoro-7H-pyrrolo[2,3-d]pyrimidin-7-yl)-5-((2-methyl-1,2,3,4-tetrahydroisoquinolin-8-yl)oxy)cyclopentane-1,2-diol], the half-inhibitory concentration (IC50) in assay [1] worked out at 3940 nM; in assay [2], 4 nM.
For `Cc1ncnc2c1c(F)cn2[C@@H]1C[C@H](Oc2cccc3c2CNCC3)[C@@H](O)[C@H]1O` [Example 117, (1S,2S,3R,5S)-3-(5-fluoro-4-methyl-7H-pyrrolo[2,3-d]pyrimidin-7-yl)-5-((1,2,3,4-tetrahydroisoquinolin-8-yl)oxy)cyclopentane-1,2-diol], in that order: 7140 nM and 5 nM.
In the case of `O[C@@H]1[C@H](O)[C@@H](Oc2cccc3c2CNCC3)C[C@H]1n1ccc2cncnc21` [Example 118, (1S,2S,3R,5S)-3-(7H-pyrrolo[2,3-d]pyrimidin-7-yl)-5-((1,2,3,4-tetrahydroisoquinolin-8-yl)oxy)cyclopentane-1,2-diol], the concentration for half-maximal inhibition (IC50) was 4840 nM in assay [1] and 2 nM in assay [2].
As to `Cc1ncnc2c1c(F)cn2[C@@H]1C[C@H](Oc2cc(C#N)cc3c2CNCC3)[C@@H](O)[C@H]1O` [Example 119, 8-(((1S,2S,3S,4R)-4-(5-fluoro-4-methyl-7H-pyrrolo[2,3-d]pyrimidin-7-yl)-2,3-dihydroxycyclopentyl)oxy)-1,2,3,4-tetrahydroisoquinoline-6-carbonitrile], the IC50 worked out at 556 nM in assay [1] and 1 nM in assay [2].
In the case of `N#Cc1cc2c(c(O[C@H]3C[C@@H](n4cc(Br)c5c(N)ncnc54)[C@H](O)[C@@H]3O)c1)CNCC2` [Example 120, 8-(((1S,2S,3S,4R)-4-(4-amino-5-bromo-7H-pyrrolo[2,3-d]pyrimidin-7-yl)-2,3-dihydroxycyclopentyl)oxy)-1,2,3,4-tetrahydroisoquinoline-6-carbonitrile], the figures for the IC50 in assay [1] and in assay [2] were 442 nM and 1 nM, respectively.
As for `Cc1cn([C@@H]2C[C@H](Oc3ccc(F)c4c3CNCC4)[C@@H](O)[C@H]2O)c2ncnc(N)c12` [Example 121, (1S,2S,3R,5S)-3-(4-amino-5-methyl-7H-pyrrolo[2,3-d]pyrimidin-7-yl)-5-((5-fluoro-1,2,3,4-tetrahydroisoquinolin-8-yl)oxy)cyclopentane-1,2-diol], the IC50 came to 938 nM in assay [1] and 1 nM in assay [2].
On the same counts, the results for `Cc1cc2c(c(O[C@H]3C[C@@H](n4cc(C)c5c(N)ncnc54)[C@H](O)[C@@H]3O)c1)CNCC2` [Example 122, (1S,2S,3R,5S)-3-(4-amino-5-methyl-7H-pyrrolo[2,3-d]pyrimidin-7-yl)-5-((6-methyl-1,2,3,4-tetrahydroisoquinolin-8-yl)oxy)cyclopentane-1,2-diol] are 4480 nM and 3 nM.
On the same counts, the results for `Cc1cc2c(c(O[C@H]3C[C@@H](n4cc(Br)c5c(N)ncnc54)[C@H](O)[C@@H]3O)c1)CNCC2` [Example 123, (1S,2S,3R,5S)-3-(4-amino-5-bromo-7H-pyrrolo[2,3-d]pyrimidin-7-yl)-5-((6-methyl-1,2,3,4-tetrahydroisoquinolin-8-yl)oxy)cyclopentane-1,2-diol] are 452 nM and 2 nM.
As to `Cc1cc2c(c(O[C@H]3C[C@@H](n4cc(F)c5c(C)ncnc54)[C@H](O)[C@@H]3O)c1)CNCC2` [Example 124, (1S,2S,3R,5S)-3-(5-fluoro-4-methyl-7H-pyrrolo[2,3-d]pyrimidin-7-yl)-5-((6-methyl-1,2,3,4-tetrahydroisoquinolin-8-yl)oxy)cyclopentane-1,2-diol], the IC50 amounted to 3830 nM in assay [1] and 2 nM in assay [2].
For `Nc1ncnc2c1c(Br)cn2[C@@H]1C[C@H](Oc2cc(F)c(F)c3c2CNCC3)[C@@H](O)[C@H]1O` [Example 125, (1S,2S,3R,5S)-3-(4-amino-5-bromo-7H-pyrrolo[2,3-d]pyrimidin-7-yl)-5-((5,6-difluoro-1,2,3,4-tetrahydroisoquinolin-8-yl)oxy)cyclopentane-1,2-diol], in that order: 637 nM and 1 nM.
